target: T1, ΔF508-CFTR (Homo sapiens, UniProt P13569, DEL508-508); assay: hBE equivalent current (Ieq) assay: AUC of equivalent chloride current after forskolin/VX-770 in primary lung epithelial cells homozygous for ΔF508; format: cell-based; conditions: relative to CFTR amplifier (Compound A)+VX-809 (3 uM), compound at 10 uM and Compound A at 3 uM, 24 h treatment
T1 construct: Primary lung epithelial cells homozygous for the Cystic Fibrosis-causing ΔF508 mutation were differentiated for a minimum of 4 weeks; endogenous in cells; host or cells: primary lung epithelial cells (hBE) homozygous for ΔF508, differentiated at an air-liquid interface
Summary of the method: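 Readout is the increase over vehicle in equivalent chloride current AUC from forskolin/VX-770 addition to bumetanide, measured by current clamp at 36 °C after benzamil block of ENaC. Cultures were homozygous ΔF508 primary lung epithelium grown ≥4 weeks at air-liquid interface and exposed basolaterally to compound for 24 h.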

T1 sequence (P13569 with tags, fused parts or gaps DEL508-508): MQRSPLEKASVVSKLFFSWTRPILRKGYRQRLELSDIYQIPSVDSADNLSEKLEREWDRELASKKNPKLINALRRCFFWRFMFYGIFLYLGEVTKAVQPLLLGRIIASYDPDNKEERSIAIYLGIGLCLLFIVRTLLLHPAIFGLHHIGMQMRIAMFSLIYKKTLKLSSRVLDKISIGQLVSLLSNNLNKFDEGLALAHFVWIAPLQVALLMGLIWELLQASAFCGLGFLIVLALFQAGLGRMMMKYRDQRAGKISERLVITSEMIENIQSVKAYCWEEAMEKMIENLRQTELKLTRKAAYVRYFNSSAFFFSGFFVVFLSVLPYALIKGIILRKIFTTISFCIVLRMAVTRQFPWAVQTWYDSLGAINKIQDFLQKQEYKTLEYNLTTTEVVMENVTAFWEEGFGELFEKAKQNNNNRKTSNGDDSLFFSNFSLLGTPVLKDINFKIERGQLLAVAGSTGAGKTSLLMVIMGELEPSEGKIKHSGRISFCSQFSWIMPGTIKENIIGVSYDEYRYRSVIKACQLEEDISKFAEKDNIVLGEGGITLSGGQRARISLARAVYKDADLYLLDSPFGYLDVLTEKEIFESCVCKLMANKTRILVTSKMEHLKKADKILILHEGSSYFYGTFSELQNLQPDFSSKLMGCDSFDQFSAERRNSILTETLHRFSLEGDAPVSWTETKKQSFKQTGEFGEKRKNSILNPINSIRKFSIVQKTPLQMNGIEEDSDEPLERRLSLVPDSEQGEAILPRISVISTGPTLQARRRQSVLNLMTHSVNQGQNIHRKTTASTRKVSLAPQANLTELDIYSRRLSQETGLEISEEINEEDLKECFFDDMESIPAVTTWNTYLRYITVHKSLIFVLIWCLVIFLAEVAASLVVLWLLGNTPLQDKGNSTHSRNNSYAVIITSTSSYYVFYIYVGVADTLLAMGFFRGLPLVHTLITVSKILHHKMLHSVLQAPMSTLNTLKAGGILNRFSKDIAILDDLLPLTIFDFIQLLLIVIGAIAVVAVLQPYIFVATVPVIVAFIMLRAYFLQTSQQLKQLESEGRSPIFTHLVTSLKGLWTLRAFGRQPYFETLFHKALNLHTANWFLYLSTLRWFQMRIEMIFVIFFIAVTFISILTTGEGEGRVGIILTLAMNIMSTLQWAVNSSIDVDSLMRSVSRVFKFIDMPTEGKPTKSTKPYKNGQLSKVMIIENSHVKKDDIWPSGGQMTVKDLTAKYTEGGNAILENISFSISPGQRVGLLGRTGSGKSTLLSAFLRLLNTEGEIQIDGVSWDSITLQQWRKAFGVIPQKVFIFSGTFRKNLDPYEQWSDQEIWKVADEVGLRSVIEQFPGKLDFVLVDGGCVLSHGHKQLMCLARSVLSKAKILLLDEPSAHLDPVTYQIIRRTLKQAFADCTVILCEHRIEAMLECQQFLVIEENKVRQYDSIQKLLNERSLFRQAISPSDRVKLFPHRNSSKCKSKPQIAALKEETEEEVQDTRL

Row | Compound | Activity
1 | Cc1c(-c2cc(-c3cc(O)[nH]n3)c3c(O[C@H](C)c4ccccc4)ccc(C)c3n2)oc2ccccc12 [Compound 274] | + (activity<50% of an CFTR amplifier (Compound A)+VX-809 (3 uM) with compound at 10 uM and Compound A at 3 uM)
2 | Cc1c(-c2cc(CC(=O)O)c3c(OC(C)c4ccccc4)ccc(C)c3n2)oc2ccccc12 (stereo not shown) [Compound 276, 2-[8-Methyl-2-(3-methyl-1-benzofuran-2-yl)-5-(1-phenylethoxy)quinolin-4-yl]acetic Acid] | ++ (activity>50% of CFTR amplifier+VX-809 (3 uM) with compound at 10 uM and Compound A at 3 uM)
3 | Cc1c(-c2cc(C(=O)[O-])c3c(OC4CC(C)C4)ccc(C)c3n2)sc2ccccc12.[Na+] (stereo not shown) [Compound 277, Sodium 8-Methyl-2-(3-methyl-1-benzothiophen-2-yl)-5-(3-methylcyclobutoxy)quinoline-4-carboxylate] | ++ (activity>50% of CFTR amplifier+VX-809 (3 uM) with compound at 10 uM and Compound A at 3 uM)
4 | Cc1c(-c2cc(C(=O)[O-])c3c(OCc4ccccc4C#N)ccc(C)c3n2)sc2ccccc12.[Na+] [Compound 280] | ++ (activity>50% of CFTR amplifier+VX-809 (3 uM) with compound at 10 uM and Compound A at 3 uM)
5 | Cc1c(-c2cc(C(=O)[O-])c3c(O[C@H]4C[C@H](c5ccccc5)C4)ccc(C)c3n2)oc2ccccc12.[Na+] [Compound 281, Sodium 8-Methyl-2-(3-methyl-1-benzofuran-2-yl)-5-[(1r,3r)-3-phenylcyclobutoxy]quinoline-4-carboxylate] | ++ (activity>50% of CFTR amplifier+VX-809 (3 uM) with compound at 10 uM and Compound A at 3 uM)
6 | Cc1c(-c2cc(C(=O)[O-])c3c(O[C@H]4C[C@@H](c5ccccc5)C4)ccc(C)c3n2)oc2ccccc12.[Na+] [Compound 282, Sodium 8-Methyl-2-(3-methyl-1-benzofuran-2-yl)-5-[(1s,3s)-3-phenylcyclobutoxy]quinoline-4-carboxylate] | ++ (activity>50% of CFTR amplifier+VX-809 (3 uM) with compound at 10 uM and Compound A at 3 uM)
7 | Cc1c(-c2cc(C(=O)[O-])c3c(O[C@H]4C[C@H](c5ccccc5)C4)ccc(C)c3n2)sc2ccccc12.[Na+] [Compound 283, Sodium 8-Methyl-2-(3-methyl-1-benzothiophen-2-yl)-5-[(1r,3r)-3-phenylcyclobutoxy]quinoline-4-carboxylate] | ++ (activity>50% of CFTR amplifier+VX-809 (3 uM) with compound at 10 uM and Compound A at 3 uM)
8 | Cc1c(-c2cc(C(=O)[O-])c3c(O[C@H]4C[C@@H](c5ccccc5)C4)ccc(C)c3n2)sc2ccccc12.[Na+] [Compound 284, Sodium 8-Methyl-2-(3-methyl-1-benzothiophen-2-yl)-5-[(1s,3s)-3-phenylcyclobutoxy]quinoline-4-carboxylate] | ++ (activity>50% of CFTR amplifier+VX-809 (3 uM) with compound at 10 uM and Compound A at 3 uM)
9 | Cc1c(-c2cc(C(=O)[O-])c3c(O[C@H](C)c4ccc(C5COC5)cc4)ccc(C)c3n2)oc2ccccc12.[Na+] [Compound 285, Sodium 8-Methyl-2-(3-methyl-1-benzofuran-2-yl)-5-[(1R)-1-[4-(oxetan-3-yl)phenyl]ethoxy]quinoline-4-carboxylate] | ++ (activity>50% of CFTR amplifier+VX-809 (3 uM) with compound at 10 uM and Compound A at 3 uM)
10 | Cc1c(-c2cc(C(=O)[O-])c3c(O[C@@H](C)c4ccc(C5COC5)cc4)ccc(C)c3n2)oc2ccccc12.[Na+] [Compound 286, Sodium 8-Methyl-2-(3-methyl-1-benzofuran-2-yl)-5-[(1S)-1-[4-(oxetan-3-yl)phenyl]ethoxy]quinoline-4-carboxylate] | ++ (activity>50% of CFTR amplifier+VX-809 (3 uM) with compound at 10 uM and Compound A at 3 uM)
11 | Cc1c(-c2cc(C(=O)[O-])c3c(OCc4ccccc4F)ccc(C)c3n2)sc2ccccc12.[Na+] [Compound 289, Sodium 5-[(2-Fluorophenyl)methoxy]-8-methyl-2-(3-methyl-1-benzothiophen-2-yl)quinoline-4-carboxylate] | ++ (activity>50% of CFTR amplifier+VX-809 (3 uM) with compound at 10 uM and Compound A at 3 uM)
12 | Cc1c(-c2cc(C(=O)[O-])c3c(OCc4cccc(F)c4)ccc(C)c3n2)sc2ccccc12.[Na+] [Compound 290, Sodium 5-[(3-Fluorophenyl)methoxy]-8-methyl-2-(3-methyl-1-benzothiophen-2-yl)quinoline-4-carboxylate] | ++ (activity>50% of CFTR amplifier+VX-809 (3 uM) with compound at 10 uM and Compound A at 3 uM)
13 | Cc1c(-c2cc(C(=O)[O-])c3c(OCc4ccc(F)cc4)ccc(C)c3n2)sc2ccccc12.[Na+] [Compound 291, Sodium 5-[(4-Fluorophenyl)methoxy]-8-methyl-2-(3-methyl-1-benzothiophen-2-yl)quinoline-4-carboxylate] | ++ (activity>50% of CFTR amplifier+VX-809 (3 uM) with compound at 10 uM and Compound A at 3 uM)
14 | COc1ccccc1COc1ccc(C)c2nc(-c3sc4ccccc4c3C)cc(C(=O)[O-])c12.[Na+] [Compound 292, Sodium 5-[(2-Methoxyphenyl)methoxy]-8-methyl-2-(3-methyl-1-benzothiophen-2-yl)quinoline-4-carboxylate] | ++ (activity>50% of CFTR amplifier+VX-809 (3 uM) with compound at 10 uM and Compound A at 3 uM)
15 | COc1cccc(COc2ccc(C)c3nc(-c4sc5ccccc5c4C)cc(C(=O)[O-])c23)c1.[Na+] [Compound 293, Sodium 5-[(3-Methoxyphenyl)methoxy]-8-methyl-2-(3-methyl-1-benzothiophen-2-yl)quinoline-4-carboxylate] | ++ (activity>50% of CFTR amplifier+VX-809 (3 uM) with compound at 10 uM and Compound A at 3 uM)
16 | Cc1c(-c2cc(C(=O)[O-])c3c(OCc4c(F)cccc4F)ccc(C)c3n2)sc2ccccc12.[Na+] [Compound 294, Sodium 5-[(2,6-Difluorophenyl)methoxy]-8-methyl-2-(3-methyl-1-benzothiophen-2-yl)quinoline-4-carboxylate] | ++ (activity>50% of CFTR amplifier+VX-809 (3 uM) with compound at 10 uM and Compound A at 3 uM)

Row | Compound | Activity
17 | Cc1c(-c2cc(C(=O)[O-])c3c(OCc4ccc5c(c4)OCO5)ccc(C)c3n2)sc2ccccc12.[Na+] [Compound 295, Sodium 5-(2H-1,3-Benzodioxol-5-ylmethoxy)-8-methyl-2-(3-methyl-1-benzothiophen-2-yl)quinoline-4-carboxylate] | ++ (activity>50% of CFTR amplifier+VX-809 (3 uM) with compound at 10 uM and Compound A at 3 uM)
18 | Cc1c(-c2cc(C(=O)[O-])c3c(OCc4cccc5c4OCO5)ccc(C)c3n2)sc2ccccc12.[Na+] [Compound 296] | ++ (activity>50% of CFTR amplifier+VX-809 (3 uM) with compound at 10 uM and Compound A at 3 uM)
19 | Cc1c(-c2cc(C(=O)[O-])c3c(OCc4cccc(C#N)c4)ccc(C)c3n2)sc2ccccc12.[Na+] [Compound 298, Sodium 5-[(3-Cyanophenyl)methoxy]-8-methyl-2-(3-methyl-1-benzothiophen-2-yl)quinoline-4-carboxylate] | ++ (activity>50% of CFTR amplifier+VX-809 (3 uM) with compound at 10 uM and Compound A at 3 uM)
20 | Cc1c(-c2cc(C(=O)[O-])c3c(O[C@H]4CCC[C@@H](c5ccccc5)C4)ccc(C)c3n2)oc2ccccc12.[Na+] [Compound 299] | ++ (activity>50% of CFTR amplifier+VX-809 (3 uM) with compound at 10 uM and Compound A at 3 uM)
21 | Cc1c(-c2cc(C(=O)[O-])c3c(O[C@@H]4CCC[C@H](c5ccccc5)C4)ccc(C)c3n2)oc2ccccc12.[Na+] [Compound 300] | ++ (activity>50% of CFTR amplifier+VX-809 (3 uM) with compound at 10 uM and Compound A at 3 uM)
22 | Cc1c(-c2cc(C(=O)[O-])c3c(O[C@@H]4CCC[C@@H](c5ccccc5)C4)ccc(C)c3n2)oc2ccccc12.[Na+] [Compound 301] | ++ (activity>50% of CFTR amplifier+VX-809 (3 uM) with compound at 10 uM and Compound A at 3 uM)
23 | Cc1c(-c2cc(C(=O)[O-])c3c(O[C@H]4CCC[C@H](c5ccccc5)C4)ccc(C)c3n2)oc2ccccc12.[Na+] [Compound 302] | ++ (activity>50% of CFTR amplifier+VX-809 (3 uM) with compound at 10 uM and Compound A at 3 uM)
24 | Cc1ccccc1COc1ccc(C)c2nc(-c3sc4ccccc4c3C)cc(C(=O)[O-])c12.[Na+] [Compound 303] | ++ (activity>50% of CFTR amplifier+VX-809 (3 uM) with compound at 10 uM and Compound A at 3 uM)
25 | Cc1cccc(COc2ccc(C)c3nc(-c4sc5ccccc5c4C)cc(C(=O)[O-])c23)c1.[Na+] [Compound 304] | ++ (activity>50% of CFTR amplifier+VX-809 (3 uM) with compound at 10 uM and Compound A at 3 uM)
26 | Cc1cccc(C)c1COc1ccc(C)c2nc(-c3sc4ccccc4c3C)cc(C(=O)[O-])c12.[Na+] [Compound 305] | ++ (activity>50% of CFTR amplifier+VX-809 (3 uM) with compound at 10 uM and Compound A at 3 uM)
27 | Cc1c(-c2cc(C(=O)[O-])c3c(O[C@@H](CO)c4ccccc4)ccc(C)c3n2)sc2ccccc12.[Na+] [Compound 306] | ++ (activity>50% of CFTR amplifier+VX-809 (3 uM) with compound at 10 uM and Compound A at 3 uM)
28 | Cc1c(-c2cc(C(=O)[O-])c3c(O[C@H](CO)c4ccccc4)ccc(C)c3n2)sc2ccccc12.[Na+] [Compound 307] | ++ (activity>50% of CFTR amplifier+VX-809 (3 uM) with compound at 10 uM and Compound A at 3 uM)
29 | COC[C@H](Oc1ccc(C)c2nc(-c3sc4ccccc4c3C)cc(C(=O)[O-])c12)c1ccccc1.[Na+] [Compound 308] | ++ (activity>50% of CFTR amplifier+VX-809 (3 uM) with compound at 10 uM and Compound A at 3 uM)
30 | COC[C@@H](Oc1ccc(C)c2nc(-c3sc4ccccc4c3C)cc(C(=O)[O-])c12)c1ccccc1.[Na+] [Compound 309] | ++ (activity>50% of CFTR amplifier+VX-809 (3 uM) with compound at 10 uM and Compound A at 3 uM)
31 | Cc1c(-c2cc(C(=O)[O-])c3c(O[C@@H](CCO)c4ccccc4)ccc(C)c3n2)sc2ccccc12.[Na+] [Compound 310] | ++ (activity>50% of CFTR amplifier+VX-809 (3 uM) with compound at 10 uM and Compound A at 3 uM)
